Experimental findings from the NIST ThermoML archive (doi:10.1021/je101031j) are described below.

Data set [1] can be described thus: refractive index (Na D-line) (dimensionless). As to conditions: 298.15 K; 101.33 kPa; Liquid; Standard Abbe refractometry.
For data set [2] the following is noted: 298.15 K; 101.33 kPa; Liquid; Vibrating tube method.
Data set [3] in a line: excess molar enthalpy (molar enthalpy of mixing); xn = mol fraction of the nth substance listed. As to conditions: 298.15 K, 101.3 kPa, Liquid, Calvet calorimetry.

± gives the expanded uncertainty stated by the source.

What is called refractive index is a measure of how strongly the sample bends light. The term mass density denotes the mass of a sample divided by its volume. For `CCC(C)(C)O` [2-methylbutan-2-ol], the refractive index in data set [1] came to 1.4019 ± 0.0005. In data set [2], the mass density was 804.8 ± 0.31 kg/m3.

Regarding `CCC(C)(C)O` [2-methylbutan-2-ol] + CCCCCO, the excess molar enthalpy was -0.0499 ± 0.000574 kcal/mol in data set [3] (x1 = 0.0899); -0.09866 ± 0.000956 kcal/mol in data set [3] (x1 = 0.18); -0.1359 ± 0.00124 kcal/mol in data set [3] (x1 = 0.27); -0.1551 ± 0.00139 kcal/mol in data set [3] (x1 = 0.3664); -0.1636 ± 0.00146 kcal/mol in data set [3] (x1 = 0.4566); -0.1618 ± 0.00143 kcal/mol in data set [3] (x1 = 0.5468). Moreover, the excess molar enthalpy in data set [3] (x1 = 0.6372) was -0.1515 ± 0.00136 kcal/mol; in data set [3] (x1 = 0.7278), -0.1268 ± 0.00117 kcal/mol; in data set [3] (x1 = 0.8185), -0.09235 ± 0.000908 kcal/mol; in data set [3] (x1 = 0.9091), -0.0493 ± 0.000574 kcal/mol.

For `CCC(C)(C)O` [2-methylbutan-2-ol] + CCCCO, the excess molar enthalpy in data set [3] (x1 = 0.09) was -0.064 ± 0.000669 kcal/mol; in data set [3] (x1 = 0.1801), -0.1142 ± 0.00108 kcal/mol; in data set [3] (x1 = 0.2702), -0.1553 ± 0.00139 kcal/mol; in data set [3] (x1 = 0.3707) it was -0.1793 ± 0.00158 kcal/mol; in data set [3] (x1 = 0.4609), -0.1912 ± 0.00167 kcal/mol; in data set [3] (x1 = 0.551) it was -0.1882 ± 0.00165 kcal/mol. The excess molar enthalpy in data set [3] (x1 = 0.6412) was -0.1746 ± 0.00153 kcal/mol; in data set [3] (x1 = 0.7313), -0.145 ± 0.00131 kcal/mol; in data set [3] (x1 = 0.8198), -0.102 ± 0.00098 kcal/mol; in data set [3] (x1 = 0.9099), -0.0509 ± 0.000574 kcal/mol.

As to `CCC(C)(C)O` [2-methylbutan-2-ol] + CCCO, the excess molar enthalpy in data set [3] (x1 = 0.09) is -0.0608 ± 0.000645 kcal/mol; in data set [3] (x1 = 0.1801) it was -0.1096 ± 0.00103 kcal/mol; in data set [3] (x1 = 0.2802), -0.1568 ± 0.00141 kcal/mol; in data set [3] (x1 = 0.3701), -0.1879 ± 0.00165 kcal/mol; in data set [3] (x1 = 0.4599), -0.2053 ± 0.00177 kcal/mol; in data set [3] (x1 = 0.5497), -0.2041 ± 0.00177 kcal/mol. The excess molar enthalpy in data set [3] (x1 = 0.6395) was -0.1921 ± 0.00167 kcal/mol; in data set [3] (x1 = 0.7292), -0.1605 ± 0.00143 kcal/mol; in data set [3] (x1 = 0.8189), -0.1131 ± 0.00105 kcal/mol; in data set [3] (x1 = 0.9088), -0.0556 ± 0.000621 kcal/mol.

`CCC(C)(C)O` [2-methylbutan-2-ol] + CCO: the excess molar enthalpy in data set [3] (x1 = 0.0898) was -0.0594 ± 0.000645 kcal/mol; in data set [3] (x1 = 0.1796), -0.1128 ± 0.00105 kcal/mol; in data set [3] (x1 = 0.2807), -0.1686 ± 0.00148 kcal/mol; in data set [3] (x1 = 0.3707), -0.2039 ± 0.00177 kcal/mol; in data set [3] (x1 = 0.4607) it was -0.2271 ± 0.00194 kcal/mol; in data set [3] (x1 = 0.5507), -0.2326 ± 0.00198 kcal/mol. In addition, the excess molar enthalpy in data set [3] (x1 = 0.6406) was -0.2178 ± 0.00186 kcal/mol; in data set [3] (x1 = 0.7306) it was -0.1842 ± 0.0016 kcal/mol; in data set [3] (x1 = 0.8205) it was -0.1302 ± 0.0012 kcal/mol; in data set [3] (x1 = 0.9103) it was -0.0648 ± 0.000693 kcal/mol.

Consider `CCC(C)(C)O` [2-methylbutan-2-ol] + CO, for which the excess molar enthalpy in data set [3] (x1 = 0.0908) is -0.0613 ± 0.000669 kcal/mol; in data set [3] (x1 = 0.1814), -0.1248 ± 0.00115 kcal/mol; in data set [3] (x1 = 0.2731) it was -0.1921 ± 0.00167 kcal/mol; in data set [3] (x1 = 0.3644), -0.2497 ± 0.00213 kcal/mol; in data set [3] (x1 = 0.4608) it was -0.2868 ± 0.00239 kcal/mol; in data set [3] (x1 = 0.5513), -0.3031 ± 0.00263 kcal/mol. Moreover, the excess molar enthalpy in data set [3] (x1 = 0.6416) was -0.2905 ± 0.00239 kcal/mol; in data set [3] (x1 = 0.7319) it was -0.2556 ± 0.00217 kcal/mol; in data set [3] (x1 = 0.8195), -0.1911 ± 0.00167 kcal/mol; in data set [3] (x1 = 0.9101) it was -0.1008 ± 0.000956 kcal/mol.

For `CCCCO` [butan-1-ol], the refractive index in data set [1] is 1.3973 ± 0.0005. Also, the mass density in data set [2] is reported as 805.61 ± 0.31 kg/m3.

Turning to `CCO` [ethanol], the refractive index in data set [1] is 1.3591 ± 0.0005. The mass density in data set [2] worked out at 785.22 ± 0.31 kg/m3.

As for `CO` [methanol], the refractive index in data set [1] is given as 1.3264 ± 0.0005. Moreover, in data set [2], the mass density worked out at 786.42 ± 0.31 kg/m3.

`CCCCCO` [pentan-1-ol]: the refractive index in data set [1] was found to be 1.4086 ± 0.0005. In addition, the mass density in data set [2] came to 810.82 ± 0.31 kg/m3.

Take `CCCO` [propan-1-ol]: in data set [1], the refractive index was found to be 1.383 ± 0.0005. Moreover, the mass density in data set [2] was found to be 799.46 ± 0.31 kg/m3.
